Experimental data published in EP0384522A1, “Antiviral tetrahydroimidazo[1,4]benzodiazepin-2-thiones” (priority 1989, dated 1990).
In brackets after ≈: the same amount, converted by molar mass. Like-named read-outs stand apart in the source and are kept apart here.

Columns and labels:
Format in all cases: cell-based
[1] = tested on: HIV; assay: Inhibition of the HIV-induced cytopathic effect in MT-4 cells (MTT assay); conditions: for EC50: Human immunodeficiency virus 1, MT4, dose achieving 50% protection of HIV-infected MT-4 cells, read-out: ED₅₀ (50% effective dose); for EC50 / ED₅₀ (50% effective dose): MTT, 540 nm; for ED₅₀ (50% effective dose): dose achieving 50% protection of HIV-infected MT-4 cells
Experimental: (§1) A rapid, sensitive and automated assay procedure was used for the in-vitro evaluation of anti-HIV agents. An […] T4-cell line, MT-4, which was previously shown (Koyanagi et al., Int. J. Cancer, 36, 445-451, 1985) to be highly susceptible to and permissive for HIV infection, served as the target cell line. Inhibition of the HIV-induced cytopathic effect was used as the end point. The viability of both HIV- and mock-infected cells was assessed spectrophotometrically via the in-situ reduction of 3-(4,5-dimethylthiazol-2-yl)-2,5-diphenyltetrazolium bromide (MTT). The 50% cytotoxic dose (CD₅₀ in µg/ml) was defined as the concentration of compound that reduced the absorbance of the mock-infected control sample by 50%. The percent protection achieved by the compound in HIV-infected cells was calculated by the following formula: [formula] whereby (ODT)HIV is the optical density measured with a given concentration of the test compound in HIV-infected cells; (ODC)HIV is the optical density measured for the control untreated HIV-infected cells; (ODC)MOCK is the optical density measured for the control untreated mock-infected cells; all optical density values were determined at 540 nm. The dose achieving 50% protection according to the above formula was defined as the 50% effective dose (ED₅₀ in µg/ml). The ratio of CD₅₀ to ED₅₀ was defined as the selectivity index (SI).

[2] = in vitro; conditions: human, mt-4 cells, CD₅₀ (50% cytotoxic dose)
Experimental: as §1

[3] = tested on: mock-infected MT-4 cells; assay: in vitro; conditions: human
Experimental: as §1

Row | SMILES | EC50 [1] [µg/mL] | SI (selectivity index) ([1]; ratio of CD₅₀ to ED₅₀) | CC50 [2] [µg/mL] | SI (selectivity index) [1] | ED₅₀ (50% effective dose) [1] [µg/mL] | CD₅₀ (50% cytotoxic dose) [3] [µg/mL]
1 | CC(C)=CCN1Cc2cccc3[nH]c(=S)n(c23)CC1C (racemic) [compound 4, (±)-4,5,6,7-tetrahydro-5-methyl-6-(3-methyl-2-butenyl)imidazo[4,5,1-jk][1,4]benzodiazepine-2(1H)-thione] | 0.013 (≈ 0.0452 µM) | 1923 | 25 (≈ 87 µM) |  |  | 
2 | CC(C)=CCN1Cc2cc(Cl)cc3[nH]c(=S)n(c23)C[C@@H]1C [compound 3, (+)-(S)-9-chloro-4,5,6,7-tetrahydro-5-methyl-6-(3-methyl-2-butenyl)imidazo[4,5,1-jk][1,4]benzodiazepine-2(1H)-thione] |  |  |  | 20400 | 0.0005 | 10
3 | CC(C)=CCN1Cc2cccc3[nH]c(=S)n(c23)C[C@@H]1C [compound 5, (+)-(S)-4,5,6,7-tetrahydro-5-methyl-6-(3-methyl-2-butenyl)imidazo[4,5,1-jk] [1,4]benzodiazepine-2(1H)-thione] | 0.008 (≈ 0.0278 µM) | 40625 | 325 (≈ 1130 µM) |  |  | 
4 | CC(C)=CCN1Cc2cc(Cl)cc3[nH]c(=S)n(c23)C[C@@H]1C [compound 7] |  |  |  | 12778 | 0.0018 | 23

Continued, in another order:

Row | EC50 [1] [µg/mL] | SMILES | SI (selectivity index) ([1]; ratio of CD₅₀ to ED₅₀) | CC50 [2] [µg/mL] | SI (selectivity index) [1] | ED₅₀ (50% effective dose) [1] [µg/mL] | CD₅₀ (50% cytotoxic dose) [3] [µg/mL]
5 | 0.155 (≈ 0.593 µM) | CCCN1Cc2cccc3[nH]c(=S)n(c23)CC1C (stereo not drawn) [compound 1, 4,5,6,7-tetrahydro-5-methyl-6-propylimidazo-[4.5.1-jk][1,4]benzodiazepine-2(1H)-thione] | 948 | 147 (≈ 562 µM) |  |  | 
6 | 0.045 (≈ 0.157 µM) | CC(C)=CCN1Cc2cccc3[nH]c(=S)n(c23)C[C@H]1C [compound 6] | ≧5555 | ≥ 250 |  |  | 
7 | 0.0126 (≈ 0.0461 µM) | C=C(C)CN1Cc2cccc3[nH]c(=S)n(c23)C[C@@H]1C [compound 8] | 365 | 4.6 (≈ 16.8 µM) |  |  | 
8 | 0.0166 (≈ 0.0607 µM) | C[C@H]1Cn2c(=S)[nH]c3cccc(c32)CN1CC1CC1 [compound 9] | >15029 | > 250 |  |  | 
